Tests used:
Assay type in all cases: cell-based, human
[1] = system: E-selectine adhesive molecule CD62 (ELAM-1); assay: Cytofluorometric quantitative analysis of E-selectine (ELAM-1) expression in ECV 304 cells; details: 48 hr
Description: (§1) Cell lines ECV 304: they are cells coming from umbilical cord of a new-born and spontaneously immortalized at the 136th step (distributed from Collection of Cell Cultures). Such cells were cultured in a complete medium consisted of: Medium 199, L-glutamine 1%, penicillin/streptomycin 10 (Invitrogen) with an addition of 10% FCS (fetal calf serum) (Hy-clone).
Cytofluorometric quantitative analysis of aminaphtone effects on the E-selectine adhesive molecule expression CD62 (ELAM-1).
Cells of the ECV304 line, cultured in 28 cm^2 Petri dishes, were stimulated with IL-1β at 100 U/ml (Roche) over 48 hrs in a complete medium and complete medium additioned with aminaphtone at the concentration of 2; 4; 5 μg/ml, respectively. Such concentrations are equivalent to concentrations reached “in vivo” through administration of Capillarema per os at the standard dosage of 3 capsules/day (capsules with 75 mg of active substance per day). Furthermore, cells untreated with IL-1β were incubated in a complete medium additioned with aminaphtone alone at the concentration of 4 μg/ml.
Samples, after washing with PBS, were removed from the culture plates through a treatment with trypsin-EDTA. Adhesive molecules expression was detected through incubation over 20 min. with 7 μl/10^6 of human monoclonal antibody CD62-E-PECy5 (ELAM-1) (Becton-Dickinson). The binding specificity was ensured by the addition of the control […]. After washing and re-suspension in the fixing solution (1% paraformaldehyde, PFA in PBS), samples were analyzed in a flow cytometry with FACSdiva Software (Becton-Dickinson). Data were expressed as mean channel fluorescence and as fluorescence percentage of positive cells. All experiments were repeated 5 times on independent cell samples coming from different experimental sessions. Evaluation of endothelin production (ET-1).

endothelin-1 (ET-1) = assay: Endothelin-1 production from ECV 304 cells, EIA-kit on supernatants; details: aminaphtone 2, 4, 6 mcg/ml, dose-dependent
Description: as §1
a) EIA-kit—Supernatants of cell samples ECV304 were collected, cultured as above, treated with IL-1β at 100 U/ml over 6-12-24 and 36 hrs or with IL-1β at 100 U/ml additioned with aminaphtone at the concentration of 2; 4; 6 μg/ml, respectively. Moreover, samples non-stimulated with IL-1β were incubated with the addition of aminaphtone alone at 2; 4; 6 μg/ml.
The concentration of ET-1 existing in the supernatants was quantified through Endothelin-1 EIA-Kit (CAYMAN Chemical) in an interval between 0 and 250 pg/ml. This immunometric test is based on the “sandwich” technique with a double antibody.

[2] = system: Pre-Pro-ET-1 (PPET-1) gene; assay: Real-Time RT-PCR specific for Pre-Pro-ET-1 (PPET-1) in ECV 304 cells; details: ECV304 cells with or without IL-1β 100 U/ml, aminaphtone 2; 4; 6, 6-12-24-36 hrs
Description: as §1
b) Real-Time RT-PCR specific for Pre-Pro-ET-1 (PPET-1). The expression of PPET-1 gene was detected at 6-12-24-36 hrs, respectively, in samples: treated with IL-1β (100 U/ml); treated with IL-1β (100 U/ml) additioned with aminaphtone (2; 4; […]); non-stimulated by IL-1β but treated with aminaphtone alone. RT-PCR technique based on TaqMan technology was used (Applied Biosystems, Foster City, Calif.), through a sequence determination system ABI PRISM 7000 (Applied Biosystems). 2-4 μl were collected form each cDNA, diluted 1:5, in a final volume of 25 μl. […] The quantification of the specific mRNA PPET-1 was normalized for the constitutive gene expression glyceraldehyde-3-phosphate-dehydro-genase (GAPDH). Relative quantifications of the gene expression were made possible by the use of the comparative method CT (ΔΔCT). The CT value was defined as the number of PCR cycles required for overcome the fluorescence signal (defined as 10-fold the standard deviation of the basal variation). […]

## Cc1cc(OC(=O)c2ccc(N)cc2)c2ccccc2c1O [aminaphtone, 2-hydroxy-3-methyl-1,4-naphthohydroquinone-2-p-aminobenzoate]
[1]; ECV304 cells + IL-1β 100 U/ml, aminaphtone 2 mcg/ml, IL-1β alone 38.4±3.7, p=n.s.
  ELAM-1 % positive cells: 36.6±4.5%
[1]; ECV304 cells + IL-1β 100 U/ml, aminaphtone 2 mcg/ml, IL-1β alone 369.6±30.5, p<0.001
  ELAM-1 membrane fluorescence, mean channel (MC), mean±standard deviation: 332.2±36.8
[1]; ECV304 cells + IL-1β 100 U/ml, aminaphtone 4 mcg/ml, IL-1β alone 38.4±3.7, p<0.001
  ELAM-1 % positive cells: 28.2±2.9%
[1]; ECV304 cells + IL-1β 100 U/ml, aminaphtone 4 mcg/ml, IL-1β alone 369.6±30.5, p<0.001
  ELAM-1 membrane fluorescence, mean channel (MC), mean±standard deviation: 278.4±16.2
[1]; ECV304 cells + IL-1β 100 U/ml, aminaphtone 5 mcg/ml, IL-1β alone 38.4±3.7, p<0.001
  ELAM-1 % positive cells: 27.2±3.7%
[1]; ECV304 cells + IL-1β 100 U/ml, aminaphtone 5 mcg/ml, IL-1β alone 369.6±30.5, p<0.001
  ELAM-1 membrane fluorescence, mean channel (MC), mean±standard deviation: 252.6±10.3
[1]; ECV304 cells not activated with IL-1β, aminaphtone 4 mcg/ml, medium alone 29.1±3.1, p<0.05
  ELAM-1 % positive cells: 19.4±1.7%
[1]; ECV304 cells not activated with IL-1β, aminaphtone 4 mcg/ml, medium alone 250±22, p<0.05
  ELAM-1 membrane fluorescence, mean channel (MC), mean±standard deviation: 219±8.3
endothelin-1 (ET-1); ECV304 cells non-activated, culture medium alone, significant at 12 h (6 mcg/ml), 24 h and 36 h (4, 6 mcg/ml)
  ET-1 production (EIA-kit): tends to reduce the ET-1 production
endothelin-1 (ET-1); ECV304 cells stimulated with IL-1β 100 U/ml, 6-12-24-36 hrs, significant at 6 h (4, 6 mcg/ml), 12 h (4, 6 mcg/ml), 36 h (6 mcg/ml)
  ET-1 production (EIA-kit): tends to reduce the ET-1 production
[2]
  gene transcription of PRE-PRO-ET-1: trend, already observed at a level of gene transcription of PRE-PRO-ET-1

— patent US10028929B2, “Method of treating raynaud's disease secondary to connectivitis using aminaphtone” (LABORATORI BALDACCI S.P.A., priority 2006, dated 2018)
